This is an account of results in patent US9718804B2, “GSK-3 inhibitors” (BRISTOL-MYERS SQUIBB COMPANY, priority 2013, dated 2017).

Assay [1] has as its target GSK3β (Homo sapiens, UniProt P49841). Description: GSK3β kinase assay (Caliper LabChip, fluoresceinated peptide substrate). It counts as biochemical. The gist of the method:
(§1)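 IC50 values were derived by non-linear regression from eleven-point dose series. Each reaction was held at room temperature for 20 hours and quenched with EDTA.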

Assay [2] concerns the target GSK3α (Homo sapiens, UniProt P49840). Description: GSK3α kinase assay (Caliper LabChip, fluoresceinated peptide substrate). It counts as biochemical. The method, boiled down: as §1
The subject of assay [3] is pTau. Description: pTau assay (no method described). The class given is cell-based.
Where [4] appears, read: first value of the cell, 250 pM enzyme, 20 uM ATP, 20 hours at room temperature, read-out: GSK3β/α (nM): GSK3β IC50.

Where two headings read alike, the source gives them in different places.

Sequence of GSK3β (P49841 whole entry, species assumed): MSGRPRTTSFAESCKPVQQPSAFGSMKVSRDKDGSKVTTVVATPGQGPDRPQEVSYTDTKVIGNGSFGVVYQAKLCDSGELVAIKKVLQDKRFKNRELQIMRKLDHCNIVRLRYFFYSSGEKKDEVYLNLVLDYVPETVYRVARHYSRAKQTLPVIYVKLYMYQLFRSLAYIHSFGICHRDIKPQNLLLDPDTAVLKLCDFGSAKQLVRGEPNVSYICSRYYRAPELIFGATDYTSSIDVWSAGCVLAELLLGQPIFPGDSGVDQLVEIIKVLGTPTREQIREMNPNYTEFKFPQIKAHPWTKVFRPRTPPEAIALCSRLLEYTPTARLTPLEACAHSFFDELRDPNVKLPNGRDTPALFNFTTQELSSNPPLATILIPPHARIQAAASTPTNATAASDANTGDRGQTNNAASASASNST
Sequence of GSK3α (P49840 whole entry, species assumed): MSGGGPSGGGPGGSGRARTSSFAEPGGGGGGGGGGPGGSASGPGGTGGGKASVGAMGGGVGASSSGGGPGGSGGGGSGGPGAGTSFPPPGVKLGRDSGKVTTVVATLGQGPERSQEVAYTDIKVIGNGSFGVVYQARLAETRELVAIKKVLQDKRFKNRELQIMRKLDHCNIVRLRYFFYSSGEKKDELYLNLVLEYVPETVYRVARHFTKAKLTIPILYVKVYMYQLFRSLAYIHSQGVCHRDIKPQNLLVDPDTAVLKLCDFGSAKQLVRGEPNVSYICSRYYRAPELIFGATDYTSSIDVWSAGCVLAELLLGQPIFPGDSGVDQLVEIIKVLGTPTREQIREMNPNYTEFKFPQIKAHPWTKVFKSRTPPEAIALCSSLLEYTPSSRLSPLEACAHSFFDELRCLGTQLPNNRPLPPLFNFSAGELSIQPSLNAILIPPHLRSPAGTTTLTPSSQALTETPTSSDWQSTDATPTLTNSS

With `O=C(Nc1cnncc1Br)c1ccnc(Nc2ccc(C(F)(F)F)cn2)c1` [Example 197, N-(5-Bromopyridazin-4-yl)-2-((5-(trifluoromethyl)pyridin-2-yl)amino)isonicotinamide], the IC50 in assay [1] (setting [4]) is 70 nM; in assay [2], 22 nM; in assay [3], 3500 nM.
On the same counts, the results for `O=C(Nc1cnc(Cl)cc1C(O)C1CC1)c1ccnc(Nc2ccc(C(F)(F)F)cn2)c1` (stereo not drawn) [Example 93, N-(6-Chloro-4-(cyclopropyl(hydroxy)methyl)pyridin-3-yl)-2-((5-(trifluoromethyl)pyridin-2-yl)amino)isonicotinamide] are 2.6 nM, 0.78 nM and 110 nM.
On the same counts, the results for `O=C(Nc1cnccc1-c1ccccc1)c1ccnc(Nc2ccc(Cl)cn2)c1` [Example 59, 2-((5-Chloropyridin-2-yl)amino)-N-(4-phenylpyridin-3-yl)isonicotinamide] are 0.9 nM, 0.39 nM and 45 nM.
In the same order, the values of `CC1(c2cc(Cl)ncc2NC(=O)c2ccnc(Nc3ccc(C(F)(F)F)cn3)c2)OCCO1` [Example 76, N-(6-Chloro-4-(2-methyl-1,3-dioxolan-2-yl)pyridin-3-yl)-2-((5-(trifluoromethyl)pyridin-2-yl)amino)isonicotinamide] are 0.32 nM, 0.2 nM and 13 nM.
Turning to `CN(C)S(=O)(=O)c1ccc(Nc2cc(C(=O)Nc3cnccc3OCC(F)(F)F)ccn2)nc1` [Example 30, 2-((5-(N,N-Dimethylsulfamoyl)pyridin-2-yl)amino)-N-(4-(2,2,2-trifluoroethoxy)pyridin-3-yl)isonicotinamide], the IC50 in assay [1] (setting [4]) amounted to 0.5 nM; in assay [2], 0.31 nM; in assay [3], 24 nM.
Consider `O=C(Nc1cncc(-c2cccc(F)c2F)c1)c1ccnc(Nc2ccc(C(F)(F)F)cn2)c1` [Example 130, N-(5-(2,3-Difluorophenyl)pyridin-3-yl)-2-((5-(trifluoromethyl)pyridin-2-yl)amino)isonicotinamide], for which the IC50 came out at 42 nM in assay [1] (setting [4]), 20 nM in assay [2] and 2600 nM in assay [3].
On the same counts, the results for `O=C(Nc1cncc(OCC2CC2)c1)c1ccnc(Nc2cccc(C(F)(F)F)n2)c1` [Example 124, N-(5-(Cyclopropylmethoxy)pyridin-3-yl)-2-((6-(trifluoromethyl)pyridin-2-yl)amino)isonicotinamide] are 9.4 nM, 3.5 nM and 3600 nM.
On the same counts, the results for `O=C(Nc1cnccc1-c1ccc(Cl)cc1)c1ccnc(Nc2ccc(Cl)cn2)c1` [Example 60, N-(4-(4-Chlorophenyl)pyridin-3-yl)-2-((5-chloropyridin-2-yl)amino)isonicotinamide] are 2.7 nM, 1.2 nM and 270 nM.
On the same counts, the results for `CC(C)(C)COc1ccncc1NC(=O)c1ccnc(Nc2ccc(C(F)(F)F)cn2)c1` [Example 17, N-(4-(Neopentyloxy)pyridin-3-yl)-2-((5-(trifluoromethyl)pyridin-2-yl)amino)isonicotinamide] are 1.6 nM, 0.89 nM and 43 nM.
With `O=C(Nc1cnccc1-c1ccc(F)cc1)c1ccnc(Nc2ccc(Cl)cn2)c1` [Example 58, 2-((5-Chloropyridin-2-yl)amino)-N-(4-(4-fluorophenyl)pyridin-3-yl)isonicotinamide], the figures for the IC50 in assay [1] (setting [4]), in assay [2] and in assay [3] were 0.86 nM, 0.36 nM and 57 nM, respectively.
With `CCOc1ccncc1NC(=O)c1ccnc(Nc2cc(C)ccn2)c1` [Example 13, N-(4-Ethoxypyridin-3-yl)-2-((4-methylpyridin-2-yl)amino)isonicotinamide], the results for the IC50 in assay [1] (setting [4]), in assay [2] and in assay [3] were 1.4 nM, 2.3 nM and 154 nM, respectively.
On the same counts, the results for `O=C(Nc1cncc(-c2ccccc2Cl)c1)c1ccnc(Nc2ccc(C(F)(F)F)cn2)c1` [Example 128, N-(5-(2-Chlorophenyl)pyridin-3-yl)-2-((5-(trifluoromethyl)pyridin-2-yl)amino)isonicotinamide] are 12 nM, 16 nM and 2180 nM.
On the same counts, the results for `O=C(Nc1cnccc1-c1ccccc1)c1ccnc(Nc2ccccn2)c1` [Example 1, N-(4-Phenylpyridin-3-yl)-2-(pyridin-2-ylamino)isonicotinamide] are 3.4 nM, 2.6 nM and 213 nM.
`O=C(Nc1cnccc1C1=CCCCC1)c1ccnc(Nc2ccc(C(F)(F)F)cn2)c1` [Example 36, N-(4-(Cyclohex-1-en-1-yl)pyridin-3-yl)-2-((5-(trifluoromethyl)pyridin-2-yl)amino)isonicotinamide]: the IC50 in assay [1] (setting [4]) worked out at 2.9 nM; in assay [2], 1.4 nM; in assay [3], 130 nM.
On the same counts, the results for `O=C(Nc1cnccc1C1=CCOCC1)c1ccnc(Nc2ccc(C(F)(F)F)cn2)c1` [Example 32, N-(4-(3,6-Dihydro-2H-pyran-4-yl)pyridin-3-yl)-2-((5-(trifluoromethyl)pyridin-2-yl)amino)isonicotinamide] are 2.3 nM, 0.78 nM and 71 nM.
Consider `O=C(Nc1cnc(Cl)cc1C(O)(C1CC1)C1CC1)c1ccnc(Nc2ccc(C(F)(F)F)cn2)c1` [Example 99, N-(6-Chloro-4-(dicyclopropyl(hydroxy)methyl)pyridin-3-yl)-2-((5-(trifluoromethyl)pyridin-2-yl)amino)isonicotinamide], for which the IC50 in assay [1] (setting [4]) turned out to be 6.4 nM; in assay [2], 4.6 nM; in assay [3], 430 nM.
On the same counts, the results for `O=C(Nc1cncnc1N1CCOCC1)c1ccnc(Nc2ccc(C(F)(F)F)cn2)c1` [Example 195, N-(4-Morpholinopyrimidin-5-yl)-2-((5-(trifluoromethyl)pyridin-2-yl)amino)isonicotinamide] are 17 nM, 7.9 nM and 710 nM.
As to `C[C@H]1COCCN1c1ccncc1NC(=O)c1ccnc(Nc2ccc(C(F)(F)F)cn2)c1` [Example 20, (S)—N-(4-(3-Methylmorpholino)pyridin-3-yl)-2-((5-(trifluoromethyl)pyridin-2-yl)amino)isonicotinamide], the IC50 is 0.1 nM in assay [1] (setting [4]), 0.09 nM in assay [2] and 0.66 nM in assay [3].
In the same order, the values of `N#CC1(c2ccc(Nc3cc(C(=O)Nc4cnccc4-c4ccccc4)ccn3)nc2)CC1` [Example 62, 2-((5-(1-Cyanocyclopropyl)pyridin-2-yl)amino)-N-(4-phenylpyridin-3-yl)isonicotinamide] are 0.62 nM, 0.29 nM and 37 nM.
Take `Cc1cc(-c2ccccc2)c(NC(=O)c2ccnc(Nc3ccc(C(F)(F)F)cn3)c2)cn1` [Example 68, N-(6-Methyl-4-phenylpyridin-3-yl)-2-((5-(trifluoromethyl)pyridin-2-yl)amino)isonicotinamide]: the results for the IC50 in assay [1] (setting [4]), in assay [2] and in assay [3] were 12 nM, 5.7 nM and 1010 nM, respectively.
`O=C(Nc1cnccc1S(=O)(=O)CC(F)(F)F)c1ccnc(Nc2ccc(C(F)(F)F)cn2)c1` [Example 184, N-(4-((2,2,2-Trifluoroethyl)sulfonyl)pyridin-3-yl)-2-((5-(trifluoromethyl)pyridin-2-yl)amino)isonicotinamide]: the IC50 in assay [1] (setting [4]) is 120 nM; in assay [2], 4.8 nM; in assay [3], 130 nM.
In the same order, the values of `O=C(Nc1cncc(-c2ccccc2F)c1)c1ccnc(Nc2ccc(C(F)(F)F)cn2)c1` [Example 127, N-(5-(2-Fluorophenyl)pyridin-3-yl)-2-((5-(trifluoromethyl)pyridin-2-yl)amino)isonicotinamide] are 11 nM, 6 nM and 1750 nM.
On the same counts, the results for `O=C(Nc1cncnc1)c1ccnc(Nc2ccc(C(F)(F)F)cn2)c1` [Example 191, N-(Pyrimidin-5-yl)-2-((5-(trifluoromethyl)pyridin-2-yl)amino)isonicotinamide] are 17 nM, 9 nM and 1600 nM.
As to `CC(C)(C)C(O)c1cc(Cl)ncc1NC(=O)c1ccnc(Nc2ccc(C(F)(F)F)cn2)c1` (stereo not drawn) [Example 104, N-(6-Chloro-4-(1-hydroxy-2,2-dimethylpropyl)pyridin-3-yl)-2-((5-(trifluoromethyl)pyridin-2-yl)amino)isonicotinamide], the IC50 in assay [1] (setting [4]) is 18 nM; in assay [2] it was 9.9 nM; in assay [3] it was 280 nM.
In the same order, the values of `O=C(Nc1cnc(Cl)cc1S(=O)(=O)C1CC1)c1ccnc(Nc2ccc(C(F)(F)F)cn2)c1` [Example 188, N-(6-Chloro-4-(cyclopropylsulfonyl)pyridin-3-yl)-2-((5-(trifluoromethyl)pyridin-2-yl)amino)isonicotinamide] are 5 nM, 3.3 nM and 150 nM.
In the same order, the values of `O=C(Nc1cnccc1C1(O)CCCCC1)c1ccnc(Nc2ccc(C(F)(F)F)cn2)c1` [Example 38, N-(4-(1-Hydroxycyclohexyl)pyridin-3-yl)-2-((5-(trifluoromethyl)pyridin-2-yl)amino)isonicotinamide] are 1.1 nM, 0.71 nM and 8.8 nM.
With `CC(C)CS(=O)(=O)c1ccncc1NC(=O)c1ccnc(Nc2ccc(C(F)(F)F)cn2)c1` [Example 185, N-(4-(Isobutylsulfonyl)pyridin-3-yl)-2-((5-(trifluoromethyl)pyridin-2-yl)amino)isonicotinamide], the IC50 is 0.51 nM in assay [1]; 4.8 nM in assay [2] (second value of the cell, 250 pM enzyme, 20 uM ATP, 20 hours at room temperature, read-out: GSK3β/α (nM): GSK3α IC50); 49 nM in assay [3].
